Measured values reported in ChEMBL document CHEMBL1201862, “PubChem BioAssay data set” (2004).
Calls of active or inactive are those of the source.

How the values were obtained:
[1] = target: Cytochrome P450 3A4 (Homo sapiens, UniProt P08684); details: Potency;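 note: confirmatory qHTS run detecting inhibitors and substrates of CYP3A4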
[2] = Luminescence Cell-Based Dose Confirmation HTS to Identify Activators of 5'UTR Stem-Loop Driven Alpha-Synuclein mRNA Translation in H4 Neuroglioblastoma Cells. [Related pubchem assays: 1829 (Project Summary), 1814 (Primary HTS)]; assay type: functional
[3] = Luminescence Cell-Based Dose Response HTS to Identify Activators of Luciferase Translation or Activity in H4 […] Cells. [Related pubchem assays: 1829 (Project Summary), 1814 (Primary HTS)]; assay type: functional
[4] = tested on: H4; assay: Luminescence Cell-Based Dose Response HTS to Identify Activators of 5'UTR Stem-Loop Driven Prion Protein mRNA Translation in H4 Neuroglioblastoma Cells. [Related pubchem assays: 1829 (Project Summary), 1814 (Primary HTS)]; assay type: functional; details: Homo sapiens
[5] = target: Induced myeloid leukemia cell differentiation protein Mcl-1 (Homo sapiens, UniProt Q07820); assay type: functional
Chain of Induced myeloid leukemia cell differentiation protein Mcl-1 (Q07820 whole entry): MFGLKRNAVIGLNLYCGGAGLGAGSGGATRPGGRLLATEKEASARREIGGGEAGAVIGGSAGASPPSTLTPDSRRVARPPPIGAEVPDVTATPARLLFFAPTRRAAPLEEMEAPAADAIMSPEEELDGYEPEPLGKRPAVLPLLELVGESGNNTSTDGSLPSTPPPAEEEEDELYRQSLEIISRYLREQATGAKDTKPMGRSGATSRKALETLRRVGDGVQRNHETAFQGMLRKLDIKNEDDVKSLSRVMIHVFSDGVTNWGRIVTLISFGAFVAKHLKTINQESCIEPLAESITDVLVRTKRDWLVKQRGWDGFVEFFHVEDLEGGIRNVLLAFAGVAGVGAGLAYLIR

[6] = inhibitors of firefly luciferase expression or activity, dose response, H4 neuroglioma cells, luminescence (AID 1990); assay type: functional, cell-based
[7] = Luminescence Cell-Based Dose Response HTS to Identify Inhibitors of 5'UTR Stem-Loop Driven Prion Protein mRNA Translation in H4 Neuroglioblastoma Cells. [Related pubchem assays: 1827 (Project Summary), 1813 (Primary HTS)]; assay type: functional
[8] = inhibitors of SNCA 5'UTR-driven reporter translation, confirmation, H4 neuroglioma cells, luminescence (AID 1988); assay type: functional, cell-based
[9] = target: T1, Calpain-2 catalytic subunit (Sus scrofa, UniProt P43367); assay: pig calpain II inhibitor potency, dose response, biochemical, fluorogenic peptide substrate (AID 1420); assay type: functional
T1 sequence (P43367 whole entry): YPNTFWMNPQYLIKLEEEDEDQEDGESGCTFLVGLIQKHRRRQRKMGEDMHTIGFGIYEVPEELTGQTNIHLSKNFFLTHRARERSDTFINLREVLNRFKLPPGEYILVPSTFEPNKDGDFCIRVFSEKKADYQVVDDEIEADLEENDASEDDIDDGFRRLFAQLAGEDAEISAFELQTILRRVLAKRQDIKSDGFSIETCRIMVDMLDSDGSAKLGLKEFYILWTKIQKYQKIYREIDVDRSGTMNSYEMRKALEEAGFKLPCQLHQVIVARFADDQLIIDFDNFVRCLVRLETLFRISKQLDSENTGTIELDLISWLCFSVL

[10] = HEp-2 cell cytotoxicity, dose response, cytotoxicity control for RSV inhibitor project, HTS (AID 2410); assay type: functional; details: human respiratory syncytial virus
[11] = inhibitors of HIV Env-driven cell fusion, dose response, cherry-pick (AID 652057); assay type: functional, cell-based
[12] = ZM109 Env clade C HIV-1 fusion inhibitors, dose response, HeLa effector, CEM target cells, luciferase, cherry-pick (AID 652058); assay type: functional, cell-based
[13] = inhibitors of clade B AD8 Env fusion, dose response, cell-based, cherry-pick (AID 652062); assay type: functional;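 note: luciferase signal from cell-cell fusion driven by HIV-1 clade B AD8 Env; potency is for inhibitors of fusion seen as a drop in luminescence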
[14] = target: Paired box protein Pax-8 (Homo sapiens, UniProt Q06710); assay: inhibitors of PAX8-driven TPO luciferase reporter, dose response, RMG-I cells, cherry-pick (AID 687027); assay type: functional, cell-based;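 note: luciferase reporter driven by Pax8 target thyroperoxidase promoter measured by SteadyGlo luminescence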
Chain of Paired box protein Pax-8 (Q06710 whole entry): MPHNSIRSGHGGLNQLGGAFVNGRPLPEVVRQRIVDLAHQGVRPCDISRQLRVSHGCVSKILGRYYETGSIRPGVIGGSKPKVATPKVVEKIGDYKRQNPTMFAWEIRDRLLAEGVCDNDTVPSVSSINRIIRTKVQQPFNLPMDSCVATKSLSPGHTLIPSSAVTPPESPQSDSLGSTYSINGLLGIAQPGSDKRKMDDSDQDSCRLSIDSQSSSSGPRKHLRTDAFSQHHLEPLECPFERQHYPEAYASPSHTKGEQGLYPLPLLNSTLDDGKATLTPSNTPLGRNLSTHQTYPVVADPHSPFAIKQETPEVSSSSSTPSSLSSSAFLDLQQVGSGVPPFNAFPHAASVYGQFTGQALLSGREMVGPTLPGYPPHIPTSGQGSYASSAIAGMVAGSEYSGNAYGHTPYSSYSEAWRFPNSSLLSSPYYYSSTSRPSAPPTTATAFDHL

[15] = cytotoxicity in OVCAR8 ovarian cancer cells, dose response, PAX8 project, cell-based, plate reader, dry powder samples (AID 743197); assay type: functional; details: OVCAR-8
[16] = target: T2, Carboxy-terminal domain RNA polymerase II polypeptide A small phosphatase 1 (Homo sapiens, UniProt Q9GZU7); assay: inhibitors of CTDSP1, concentration-response testing, biochemical assay, absorbance-based, actives from ultra-high-throughput screening (AID 540297); assay type: functional
T2 sequence (Q9GZU7 whole entry): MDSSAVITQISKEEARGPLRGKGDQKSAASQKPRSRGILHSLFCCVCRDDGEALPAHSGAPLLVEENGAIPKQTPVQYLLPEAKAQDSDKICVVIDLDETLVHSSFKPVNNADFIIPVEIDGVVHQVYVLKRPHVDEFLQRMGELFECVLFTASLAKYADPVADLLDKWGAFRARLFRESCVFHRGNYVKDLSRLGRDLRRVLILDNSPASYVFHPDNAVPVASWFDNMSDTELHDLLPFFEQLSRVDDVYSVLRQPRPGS

Chain of Cytochrome P450 3A4 (P08684 whole entry): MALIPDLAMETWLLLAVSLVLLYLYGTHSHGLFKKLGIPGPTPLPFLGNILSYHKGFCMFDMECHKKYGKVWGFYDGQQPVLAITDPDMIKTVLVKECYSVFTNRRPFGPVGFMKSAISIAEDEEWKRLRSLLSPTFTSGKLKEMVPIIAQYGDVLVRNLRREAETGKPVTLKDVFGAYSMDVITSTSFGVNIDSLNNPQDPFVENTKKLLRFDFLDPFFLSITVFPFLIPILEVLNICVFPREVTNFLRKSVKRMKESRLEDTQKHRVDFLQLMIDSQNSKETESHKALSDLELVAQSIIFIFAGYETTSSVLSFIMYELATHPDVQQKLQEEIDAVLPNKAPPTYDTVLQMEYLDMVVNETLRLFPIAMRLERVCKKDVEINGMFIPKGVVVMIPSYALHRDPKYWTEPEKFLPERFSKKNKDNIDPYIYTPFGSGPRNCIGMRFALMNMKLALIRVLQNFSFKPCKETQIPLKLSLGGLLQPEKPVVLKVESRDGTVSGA

N=C1C=CC(=C(c2cccc(N)c2)c2cccc(N)c2)C=C1
AC50 [1]: 5.01 µM (active)

O=C1NC(=S)N/C1=C/c1cccc2ccccc12
EC50 [2]: 17.7 µM (active) | EC50 [3]: 8.63 µM (active) | EC50 [4]: > 120 µM (not active)

CC(C)CC1(C(=O)NCc2ccccn2)C=CCN1C(=O)c1ccccc1 (centres undefined)
AC50 [1]: 15.8 µM (inconclusive)

Cc1cccc(OCCCC(=O)Nc2ccc(N(C)C)cc2)c1
IC50 [5]: < 0.4 µM (active)

Cc1cc(C)n(CC(C)NC(=O)c2cc(COc3c(F)cccc3F)on2)n1 (centres undefined)
EC50 [6]: > 120 µM (not active) | EC50 [7]: > 120 µM (not active) | EC50 [8]: > 120 µM (not active)

CC(=O)c1c(C(C)=O)c(C)n(C(c2ccccc2)c2ccccc2)c1C
IC50 [9]: > 50 µM (not active)

CCOC(=O)c1c(C)[nH]c(C(=O)COC(=O)C23CC4CC(CC(Cl)(C4)C2)C3)c1C
CC50 [10]: > 50 µM (active) | IC50 [9]: 4.08 µM (not active)

C=C(C)C(O)/C=C/C=C/c1ccccc1 (centres undefined)
AC50 [1]: 3.98 µM (inconclusive)

COc1cccc(S(=O)(=O)N(C)C[C@H]2Oc3cc(C4=CCCC4)ccc3S(=O)(=O)N([C@H](C)CO)C[C@@H]2C)c1
AC50 [11]: 34.2 µM (active)

C[C@H]1CN([C@@H](C)CO)C(=O)c2cc(NC(=O)Nc3ccc4c(c3)OCO4)ccc2O[C@H]1CN(C)S(=O)(=O)c1cccs1
AC50 [11]: 6.19 µM (active) | AC50 [12]: 24.7 µM (active) | AC50 [13]: 29.3 µM (active)

C[C@@H]1CN([C@@H](C)CO)C(=O)c2cc(NC(=O)Nc3ccc(C(F)(F)F)cc3)ccc2O[C@@H](C)CCCCO[C@@H]1CN(C)Cc1ccccc1
AC50 [14]: 9.49 µM (active) | AC50 [15]: > 60 µM (inactive)

C[C@H]1CN([C@@H](C)CO)C(=O)c2c(c3ccccc3n2C)-c2ccccc2CO[C@H]1CN(C)C(=O)Cc1ccccc1
AC50 [11]: < 0.26 µM (active) | AC50 [12]: < 0.26 µM (active) | AC50 [13]: < 0.26 µM (active)

O=C(N/N=C/c1ccc(-c2ccccc2C(=O)O)o1)c1cccs1
IC50 [5]: 5.27 µM (active) | IC50 [16]: 4.6 µM (active)

CN1C(=O)/C(=C2/C(=O)Nc3ccccc32)S/C1=N\c1ccc(Cl)cc1
EC50 [2]: 12.7 µM (active) | EC50 [3]: 46.1 µM (active) | EC50 [4]: 32.3 µM (active)

COc1cccc(O)c1O [3-METHOXYCATECHOL]
AC50 [1]: 20 µM (inconclusive)

C=CC(C1=CC(=O)C=CC1=O)c1ccccc1 (centres undefined) [DALBERGIONE]
AC50 [1]: 31.6 µM (inconclusive)
